According to patent US9458141B2, “Low molecular weight thyroid stimulating hormone receptor (TSHR) agonists” (The United States of America, as represented by the …, priority 2008, dated 2016):

Target: T1, human TSHR (Homo sapiens, UniProt P16473)
T1 construct: expressed in transfected cells
Assay: Homogeneous Time Resolved Fluorescence (HTRF) cAMP assay, TSHR cell line
Format: cell-based
Conditions: for AC50: HTRF cAMP, TSHR cell line, 30 minute incubation, read-out: AC50; for Emax: read-out: Maximum Activity compared to TSH, 100% activity = response of 30 mU/ml TSH, 0% = DMSO control; for Maximum Activity compared to TSH: 100% activity = response of 30 mU/ml TSH, 0% = DMSO control, in %
Description: Generation of Stable Cell-Lines Expressing TSHR, LHCGR or FSHR.
cDNA for human TSHR was amplified by PCR from hTSHR-pSVL (1) and inserted into the pcDNA3.1(−)/hygromycin vector using restriction sites XhoI and BamHI. cDNA for human LHCGR was amplified by PCR from hLHR-pGS5 (2) and was inserted into the pcDNA3.1(+)/hygromycin vector using restriction sites BamHI and XhoI. The FSHR cDNA in pcDNA3.1 was obtained from the Missouri S&T cDNA Resource Center (www.cDNA.org) and was subcloned into the pcDNA3.1(−)/hygromycin vector. Constructs were confirmed by sequencing (MWG Biotech). HEK-EM 293 cells were transfected with the cDNA of TSHR, LHCGR or FSHR using FuGENE 6 Transfection reagent (Roche Diagnostics) according to the manufacturer's protocol. Two days after transfection cells were passaged and grown in Dulbecco's modified Eagle's Medium (DMEM) supplemented with 10% fetal bovine serum, 100 units/ml penicillin and 10 μg/ml streptomycin (Life Technologies Inc.) and with hygromycin (250 μg/ml) as a selection marker. After 7 to 10 days hygromycin-resistant clones were selected, and after a few days of further growth submitted for a cAMP assay to identify clones that stably express the appropriate receptor. Cell Culture. Cells stably expressing TSHR, LHCGR or FSHR and parental HEK 293 cells were maintained in DMEM medium containing 10% FBS, 100 units/ml Penicillin, 100 μg/ml Streptomycin, at 37° C. in 5% CO2. For the cells lines stably expressing TSHR, LHCGR or FSHR, additional 250 μg/ml Hygromycin was added during the cell culture. The cells were seeded at a density of 3 to 4 million cells in a T175 flask containing 35 ml of media and were allowed to grow for 3 days to reach 80-90% confluence. A flask of HEK 293 cells at this density generally yielded 30 million cells total. Homogeneous Time Resolved Fluorescence (HTRF) cAMP Assay. Compounds were assayed using a HTRF cAMP detection kit (Cisbio, Bedford, Mass.) on both TSHR cell line and parental cell line. Briefly, 750 cells were plated in 2.5 μl/well of complete media (DMEM containing 10% FCS) in 1536 well solid bottom white plates and 20 nl/well compound in DMSO solution or controls was added. Following 30 minute incubation at room temperature, 2.5 μl/well of labeled d2 cAMP and 2.5 μl/well of anti-cAMP antibody (both diluted 1:20 in lysis buffer) were added to each well using a flying reagent dispenser (Aurora Discovery, San Diego). Plates were measured using the Envision plate reader (PerkinElmer, Boston, Mass.) with excitation at 330 nm and emissions of 615 nm and 660 nm. Compound Preparation. […] Data Analysis. […] The EC50 values of compounds were calculated from the concentration-response curves by nonlinear regression analysis using Prism software (GraphPad Software, San Diego, Calif.). Confirmatory cAMP Assay and Test for Selectivity Towards TSHR 50,000 cells/well were plated in complete media (DMEM containing 10% FCS) in 96 well plates. […] Following aspiration of the medium after incubation with compounds, cells were lysed using lysis buffer of the cAMP-Screen Direct™ System (Applied Biosystems, Cat # CSD200). The cAMP content of the cell lysate was determined using the manufacturer's protocol. […] Below is a List of Compounds that were Assayed via the Homogeneous Time Resolved Fluorescence (HTRF) cAMP Assay.

T1 sequence (P16473 21-764): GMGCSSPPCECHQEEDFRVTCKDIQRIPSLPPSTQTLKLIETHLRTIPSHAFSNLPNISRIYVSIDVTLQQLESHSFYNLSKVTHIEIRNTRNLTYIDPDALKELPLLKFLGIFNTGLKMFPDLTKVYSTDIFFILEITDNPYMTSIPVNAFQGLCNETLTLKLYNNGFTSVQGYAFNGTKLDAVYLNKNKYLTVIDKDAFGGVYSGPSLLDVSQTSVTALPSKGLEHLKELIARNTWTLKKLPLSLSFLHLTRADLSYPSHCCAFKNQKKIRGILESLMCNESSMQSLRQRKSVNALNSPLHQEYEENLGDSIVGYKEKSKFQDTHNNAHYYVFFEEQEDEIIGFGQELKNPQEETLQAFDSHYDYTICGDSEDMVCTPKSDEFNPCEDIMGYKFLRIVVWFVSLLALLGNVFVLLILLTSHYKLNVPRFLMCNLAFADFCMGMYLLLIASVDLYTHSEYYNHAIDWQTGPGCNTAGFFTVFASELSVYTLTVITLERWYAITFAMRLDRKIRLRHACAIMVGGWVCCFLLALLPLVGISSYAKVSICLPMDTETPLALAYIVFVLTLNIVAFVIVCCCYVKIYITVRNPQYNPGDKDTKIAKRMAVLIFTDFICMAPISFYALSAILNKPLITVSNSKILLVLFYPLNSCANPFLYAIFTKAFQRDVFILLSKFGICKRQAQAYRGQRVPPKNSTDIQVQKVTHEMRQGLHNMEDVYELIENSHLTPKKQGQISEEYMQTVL

AC50 | Emax | Maximum Activity compared to TSH | Compound
15.8 µM | 88.7% | – | COc1ccc(C(=O)N(Cc2ccccc2)Cc2ccco2)c(O)c1 [Structure 102]
15.8 µM | – | 106.72 | COc1ccc(C(=O)N(Cc2cccs2)Cc2cccs2)c(O)c1 [Structure 103]
39.8 µM | – | 122.31 | COc1ccc(CN(Cc2ccccc2)C(=O)c2ccc(O)cc2)cc1COc1ccc(NC(C)=O)cc1 [Structure 104]
17.8 µM | 126% | – | COc1ccc(C2Nc3ccc(NC(C)=O)cc3C(=O)N2Cc2ccccc2)cc1COc1ccc(NC(C)=O)cc1 (stereo not drawn) [Structure 105]
17.8 µM | 45.4% | – | COc1ccc(C2Nc3cccc(OC)c3C(=O)N2Cc2ccccc2)cc1COc1ccc(NC(C)=O)cc1 (stereo not drawn) [Structure 106]
31.6 µM | 63.7% | – | COc1ccc(C2Nc3ccccc3C(=O)N2Cc2ccc(CNC(=O)CO)cc2)cc1COc1ccc(NC(C)=O)cc1 (stereo not drawn) [Structure 107]
15.8 µM | – | 63.12 | COc1ccc(C(=O)N(Cc2cccs2)Cc2cccs2)c(O)c1 [Structure 108]
17.8 µM | 47.5% | – | COc1ccc(CNc2ccccc2C(=O)NCc2ccccc2)cc1COc1ccc(NC(C)=O)cc1 [Structure 109]
22.4 µM | – | 48.00 | COc1ccc(-c2nc3ccc(NC(C)=O)cc3c(=O)n2Cc2cccc(Cl)c2)cc1COc1ccc(NC(C)=O)cc1 [Structure 110]
35.5 µM | – | 98.46 | COc1ccc(C2Nc3ccccc3C(=O)N2Cc2cccnc2)cc1COc1ccc(NC(C)=O)cc1 (stereo not drawn) [Structure 111]
15.8 µM | – | 60.92 | COc1ccc(C(=O)N(Cc2ccco2)Cc2cccs2)c(O)c1 [Structure 112]
39.8 µM | 63.8% | – | O=C(c1ccccc1O)N(Cc1ccco1)Cc1cccs1 [Structure 113]
25.1 µM | – | 51.15 | COc1ccc(C(=O)N(Cc2ccccc2)Cc2ccccc2)c(O)c1 [Structure 114]
39.8 µM | – | 66.81 | COc1ccc(C2Nc3ccccc3C(=O)N2Cc2ccccn2)cc1COc1ccc(NC(C)=O)cc1 (stereo not drawn) [Structure 115]
35.5 µM | 54.6% | – | COc1ccc(-c2nc3ccccc3c(=O)n2Cc2ccc(CNC(=O)CO)cc2)cc1COc1ccc(NC(C)=O)cc1 [Structure 116]
44.7 µM | – | 87.19 | COc1ccc(CN(Cc2ccccc2)C(=O)c2ccncc2)cc1COc1ccc(NC(C)=O)cc1 [Structure 117]
28.2 µM | – | 96.91 | COc1ccc(C(=O)N(Cc2ccccc2)Cc2ccco2)c(O)c1 [Structure 118]
14.1 µM | – | 56.31 | COc1ccc(C2Nc3ccc(Cl)cc3C(=O)N2Cc2ccccc2)cc1COc1ccc(NC(C)=O)cc1 (stereo not drawn) [Structure 119]
15.8 µM | 40.5% | – | COc1ccc(C(=O)N(Cc2ccccc2)Cc2ccccc2)cc1COc1ccc(NC(C)=O)cc1 [Structure 120]
39.8 µM | – | 38.00 | COc1ccc(C(=O)N(Cc2ccco2)Cc2ccco2)c(O)c1 [Structure 121]
50.1 µM | – | 61.90 | COc1ccc(C(=O)N(Cc2ccco2)Cc2ccco2)c(O)c1 [Structure 122]
14.1 µM | – | 83.18 | COc1ccc(C2Nc3ccc(Cl)cc3C(=O)N2Cc2ccccc2)cc1COc1ccc(NC(C)=O)cc1 (stereo not drawn) [Structure 123]
31.6 µM | – | 62.73 | COc1ccc(CN(Cc2ccccc2)C(=O)c2ccc(OC)cc2O)cc1 [Structure 124]
39.8 µM | 56.4% | – | COc1ccc(C2Nc3ccccc3C(=O)N2Cc2ccncc2)cc1COc1ccc(NC(C)=O)cc1 (stereo not drawn) [Structure 125]
17.8 µM | – | 36.00 | COc1ccc(-c2nc3ccccc3c(=O)n2Cc2ccc(CNC(=O)CO)cc2)cc1COc1ccc(NC(C)=O)cc1 [Structure 126]
14.1 µM | 38% | – | COc1ccc(C2Nc3ccccc3C(=O)N2Cc2ccccc2)cc1COc1cccc(C)c1 (stereo not drawn) [Structure 127]
39.8 µM | – | 69.13 | COc1ccc(C2Nc3ccccc3C(=O)N2Cc2ccc(CNC(=O)CO)cc2)cc1COc1ccc(NC(C)=O)cc1 (stereo not drawn) [Structure 128]

Further lines, the compound ahead of its results:

Compound | AC50 | Emax | Maximum Activity compared to TSH
COc1ccc(C2Oc3ccc(NC(C)=O)cc3C(=O)N2Cc2cccc(Cl)c2)cc1COc1ccc(NC(C)=O)cc1 (stereo not drawn) [Structure 83] | 7.08 µM | 79% | –
COc1ccc(C2N(Cc3ccccc3)C(=O)c3ccccc3N2C)cc1COc1ccc(NC(C)=O)cc1 (stereo not drawn) [Structure 84] | 7.94 µM | – | 47.53
COc1ccc([C@H]2[C@H](c3ccccc3)C(=O)N2Cc2ccccc2)cc1COc1ccc(NC(C)=O)cc1 [Structure 85] | – | – | 54.95
COc1ccc(C2Nc3ccccc3C(=O)N2Cc2cccc3ccccc23)cc1COc1ccc(NC(C)=O)cc1 (stereo not drawn) [Structure 86] | 6.31 µM | – | 51.11
COc1ccc(OCc2cc(C3Nc4ccccc4C(=O)N3Cc3ccccc3)ccc2OC)cc1 (stereo not drawn) [Structure 87] | 3.98 µM | 38% | –
COc1ccc(C2Nc3ccccc3C(=O)N2Cc2ccccc2C(F)(F)F)cc1COc1ccc(NC(C)=O)cc1 (stereo not drawn) [Structure 88] | 5.62 µM | 30.5% | –
COc1ccc(C2Nc3ccccc3C(=O)N2Cc2ccco2)cc1COc1ccc(NC(C)=O)cc1 (stereo not drawn) [Structure 89] | 25.1 µM | – | 129.12
COc1ccc([C@H]2[C@H](c3ccccc3)C(=O)N2Cc2ccccc2)cc1COc1ccc(NC(C)=O)cc1 [Structure 90] | – | – | 110.89
COc1ccc(C2Nc3ccccc3C(=O)N2Cc2ccco2)cc1COc1ccc(NC(C)=O)cc1 (stereo not drawn) [Structure 91] | 15.8 µM | – | 88.07
COc1ccc(C(=O)N(Cc2ccccc2)Cc2cccs2)c(O)c1 [Structure 92] | 31.6 µM | – | 133.48
COc1ccc(C(=O)N(Cc2ccccc2)Cc2cccs2)c(O)c1 [Structure 93] | 28.2 µM | – | 111.66
COc1ccc(C2Nc3ccccc3C(=O)N2Cc2ccco2)cc1COc1ccc(NC(C)=O)cc1 (stereo not drawn) [Structure 94] | 25.1 µM | – | 160.25
COc1ccc(-c2nc3ccccc3c(=O)n2Cc2ccccc2)cc1COc1ccc(NC(C)=O)cc1 [Structure 95] | 12.6 µM | – | 138.18
COc1ccc(CN(Cc2ccccc2)C(=O)c2ccco2)cc1COc1ccc(NC(C)=O)cc1 [Structure 96] | 14.1 µM | 125% | –
COc1ccc(-c2nc3ccccc3c(=O)n2Cc2ccccc2)cc1COc1ccc(NC(C)=O)cc1 [Structure 97] | 15.8 µM | – | 132.18
COc1ccc(CN(Cc2ccccc2)C(=O)c2ccccc2)cc1COc1ccc(NC(C)=O)cc1 [Structure 98] | 14.1 µM | – | 140.53
COc1ccc(C2Nc3ccccc3C(=O)N2Cc2cccnc2)cc1COc1ccc(NC(C)=O)cc1 (stereo not drawn) [Structure 99] | 35.5 µM | 104% | –
COc1ccc(CN(Cc2ccccc2)C(=O)c2ccccc2N)cc1COc1ccc(NC(C)=O)cc1 [Structure 100] | 35.5 µM | – | 190.35
COc1ccc(C(=O)N(Cc2ccco2)Cc2cccs2)c(O)c1 [Structure 101] | 28.2 µM | – | 128.51
